Drawing on patent publication US10280145B2 (Toray Industries, Inc., priority 2015, dated 2019), this text covers IC50 for 7 compounds.

T1 sequence (Q08345 439-913 limits assumed): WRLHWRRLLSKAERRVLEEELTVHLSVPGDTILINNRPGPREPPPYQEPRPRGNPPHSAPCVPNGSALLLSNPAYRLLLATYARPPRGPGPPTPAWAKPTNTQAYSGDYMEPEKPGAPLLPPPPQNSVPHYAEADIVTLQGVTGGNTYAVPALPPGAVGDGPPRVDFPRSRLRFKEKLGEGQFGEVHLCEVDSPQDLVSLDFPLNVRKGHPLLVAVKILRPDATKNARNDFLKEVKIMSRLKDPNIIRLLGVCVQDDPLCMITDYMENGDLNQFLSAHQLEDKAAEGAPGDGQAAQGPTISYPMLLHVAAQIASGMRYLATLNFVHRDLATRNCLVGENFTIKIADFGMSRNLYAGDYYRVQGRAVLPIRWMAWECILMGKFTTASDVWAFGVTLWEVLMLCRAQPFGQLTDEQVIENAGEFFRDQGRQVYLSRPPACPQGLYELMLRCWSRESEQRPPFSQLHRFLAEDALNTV

This experiment concerns the target T1, intracellular domain of DDR1 (Homo sapiens, UniProt Q08345).
T1 construct: the intracellular domain of DDR1 (in a final concentration of 5 ng/μL) (Carna Biosciences, Inc.); purchased Carna Biosciences, Inc
The experiment can be described thus: Evaluation of DDR1 inhibition activity with HTRF KinEASE-TK kit. The class given is biochemical. The note with it: DDR1 intracellular domain 5 ng/μL, ATP 25 μm/L, TK Substrate-biotin 1000 nmol/L, room temperature, one hour. A general note: TR-FRET usually uses a lanthanide donor and a delayed reading to cut background.
For `COc1ccc(C(F)(F)F)cc1NC(=O)N[C@H]1CC[C@H](COCc2cccnc2)CC1` [Example 73, 1-(2-methoxy-5-(trifluoromethyl)phenyl)-3-(trans-4-((pyridin-3-ylmethoxy)methyl)cyclohexyl)urea], the IC50 came to 57.7 nM.
`COc1ccc(OC(F)(F)F)cc1NC(=O)N[C@H]1CC[C@H](COCc2ccncc2)CC1` [Example 74, 1-(2-methoxy-5-(trifluoromethoxy)phenyl)-3-(trans-4-((pyridin-4-ylmethoxy)methyl)cyclohexyl)urea] gave an IC50 of 25.2 nM.
As to `COc1ccc(C(F)(F)F)cc1NC(=O)N[C@H]1CC[C@H](COCc2ccncc2)CC1` [Example 75, 1-(2-methoxy-5-(trifluoromethyl)phenyl)-3-(trans-4-((pyridin-4-ylmethoxy)methyl)cyclohexyl)urea], the IC50 stood at 20 nM.
With `O=C(Nc1cc(C(F)(F)F)ccc1OC1COC1)N[C@H]1CC[C@H](OCc2cccnc2)CC1` [Example 76, 1-(2-(oxetan-3-yloxy)-5-(trifluoromethyl)phenyl)-3-(trans-4-(pyridin-3-ylmethoxy)cyclohexyl)urea], 14.1 nM corresponded to half-maximal inhibition (IC50).
On to `COc1ccc(OC(F)(F)F)cc1NC(=O)N[C@H]1CC[C@H](COc2cccc(C(N)=O)c2)CC1` [Example 78, 3-((trans-4-(3-(2-methoxy-5-(trifluoromethoxy)phenyl)ureido)cyclohexyl)methoxy)benzamide], for which half-maximal inhibition (IC50) required 80.1 nM.
`COc1c(CO)cc(OC(F)(F)F)cc1NC(=O)N[C@H]1CC[C@H](Oc2ccnc(-c3cccnc3)n2)CC1` [Example 79, 1-(3-(hydroxymethyl)-2-methoxy-5-(trifluoromethoxy)phenyl)-3-(trans-4-((2-(pyridin-3-yl)pyrimidin-4-yl)oxy)cyclohexyl)urea] showed an IC50 of 22.8 nM.
For `CNc1nccc(O[C@H]2CC[C@H](NC(=O)Nc3cc(OC(F)(F)F)cc(CO)c3OC)CC2)n1` [Example 80, 1-(3-(hydroxymethyl)-2-methoxy-5-(trifluoromethoxy)phenyl)-3-(trans-4-((2-(methylamino)pyrimidin-4-yl)oxy)cyclohexyl)urea], half-maximal inhibition (IC50) was put at 24.9 nM.

In general, IC50 refers to the concentration needed to halve the response being measured. The low end stands for higher potency, the high end for lower potency.
